# Where a name gives a salt, the structure may show the parent alone.
# Tests used:
# acne lesion = assay: topical multi-step treatment of an acne lesion (vasoconstricting composition, then anti-acne agent); assay type: in vivo; settings: upon topical application of the vasoconstricting composition to the acne lesion
# Text: (§1) This example provides a two step treatment for acne. The first step involves topically applying a vasoconstricting composition to the acne lesion to be treated. Suitable vasoconstricting compositions include tetrahydrozoline HCl 0.05%, naphazoline HCl 0.03%, or oxymetazoline HCl 0.025% in an aqueous base containing HPC to increase the viscosity for ease of application. Upon application of the vasoconstricting composition, the redness and swelling of the acne lesion diminishes, making the acne lesion less noticeable. After about 5 minutes, a second step is performed which involves topically applying 5% benzoyl peroxide 5% in an oil-in water moisturizer base. In this example, the benzoyl peroxide 5% is tinted to match the skin tone of the user, but this tinting is optional.
# as §1, with “three-step nighttime” for “two step”, “peroxide” for “peroxide 5%”, “The acne lesion is then covered with a patch that includes silicone on” for “In this example,”, “skin-side” for “benzoyl peroxide 5% is tinted to match the skin tone”, “patch. The patch remains in place overnight and” for “user, but this tinting”, “removed in the morning.” for “optional.”
# The following night, the three-step acne treatment is repeated.
# This example provides a three-step acne treatment that is suitable for daytime use. The first step involves topically applying a vasoconstricting composition to the acne lesion to be treated. Suitable vasoconstricting compositions include tetrahydrozoline HCl 0.05%, naphazoline HCl 0.03%, or oxymetazoline HCl 0.025% in an aqueous base containing HPC to increase the viscosity for ease of application. […]
# [1] = system: propionibacterium acnes (P. Acnes); settings: compared with other medications on the market, prescription or otherwise; cited from earlier work
# [2] = when topically applied; cited from earlier work
# [3] = topical application; cited from earlier work
SMILES,redness and swelling of the acne lesion (acne lesion),kills propionibacterium acnes (P. Acnes) [1],share of the population that experiences skin allergies [2],flux into the skin [3]
"c1ccc2c(c1)CCCC2C1=NCCN1 (stereo not drawn) [tetrahydrozoline HCl 0.05%, tetrahydrozoline HCl]",diminishes,,,
"c1ccc2c(CC3=NCCN3)cccc2c1 [naphazoline HCl 0.03%, naphazoline HCl]",diminishes,,,
O=C(OOC(=O)c1ccccc1)c1ccccc1 [benzoyl peroxide],,better than any other medication on the market,about 10%,high
"Cc1cc(C(C)(C)C)c(O)c(C)c1CC1=NCCN1 [oxymetazoline HCl 0.025%, oxymetazoline HCl]",diminishes,,,
